Key:
Assay in all cases: relative viability (nuclei count vs DMSO), 5 days (fraction); higher = more cells survive
Ricolinostat + Olaparib = compound: O=C(CCCCCCNC(=O)c1cnc(N(c2ccccc2)c2ccccc2)nc1)NO [Ricolinostat] + O=C(c1cc(Cc2n[nH]c(=O)c3ccccc23)ccc1F)N1CCN(C(=O)C2CC2)CC1 [Olaparib] (partner 8 µM)
Summary of the method: (§1)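 The day after seeding in 1536-well plates, lung cancer cell lines were treated by pin tool with a single drug, or with a fixed anchor-drug dose together with five library-drug doses (not always all listed) in √10 steps. After 5 days, a combined fix-and-stain solution (final 0.05% Triton X-100, 1% formaldehyde, 1 ug/ml Hoechst) was added. Nuclei counted on 4× images gave relative viability as treated counts over vehicle counts, reported as the median of duplicate plates.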

[1] = compound: C1=CC=C(C(=C1)C2=CC=C(C=C2)C3=CSC4=C3C(=C(C(=O)N4)C#N)O)O + C[C@@H](Oc1cc(-c2cnn(C3CCNCC3)c2)cnc1N)c1c(Cl)ccc(F)c1Cl [Crizotinib] (partner 1 µM)
Summary of the method: as §1

[2] = compound: O=C(CCCCCCNC(=O)c1cnc(N(c2ccccc2)c2ccccc2)nc1)NO [Ricolinostat] + CC1(C)CCC(c2ccc(Cl)cc2)=C(CN2CCN(c3ccc(C(=O)NS(=O)(=O)c4ccc(N[C@H](CCN5CCOCC5)CSc5ccccc5)c(S(=O)(=O)C(F)(F)F)c4)cc3)CC2)C1 [Navitoclax] (partner 0.5 µM)
Summary of the method: as §1

[3] = compound: C1=CC=C(C(=C1)C2=CC=C(C=C2)C3=CSC4=C3C(=C(C(=O)N4)C#N)O)O + O=C(CCCCCCC(=O)Nc1ccccc1)NO [Vorinostat] (partner 1 µM)
Summary of the method: as §1

Cell Line: HOP-62
- relative viability (Ricolinostat + Olaparib; first compound 0.08 µM): 0.516
- relative viability (Ricolinostat + Olaparib; first compound 0.253 µM): 0.408
- relative viability (Ricolinostat + Olaparib; first compound 0.8 µM): 0.31
- relative viability (Ricolinostat + Olaparib; first compound 2.53 µM): 0.394
- relative viability ([1]; first compound 0.08 µM): 0.901
- relative viability ([1]; first compound 0.253 µM): 1.14
- relative viability ([1]; first compound 0.8 µM): 0.983
- relative viability ([1]; first compound 2.53 µM): 1.04
- relative viability ([1]; first compound 8 µM): 0.783
- relative viability ([2]; first compound 0.08 µM): 0.887
- relative viability ([2]; first compound 0.253 µM): 1.01
- relative viability ([2]; first compound 0.8 µM): 1.03
- relative viability ([2]; first compound 2.53 µM): 1.08
- relative viability ([3]; first compound 0.08 µM): 0.586
- relative viability ([3]; first compound 0.253 µM): 0.856
- relative viability ([3]; first compound 0.8 µM): 0.607
- relative viability ([3]; first compound 2.53 µM): 0.647
- relative viability ([3]; first compound 8 µM): 0.522

Cell Line: NCI-H1975
- relative viability (Ricolinostat + Olaparib; first compound 0.08 µM): 0.85
- relative viability (Ricolinostat + Olaparib; first compound 0.253 µM): 0.768
- relative viability (Ricolinostat + Olaparib; first compound 0.8 µM): 0.713
- relative viability (Ricolinostat + Olaparib; first compound 2.53 µM): 0.643
- relative viability ([1]; first compound 0.08 µM): 0.852
- relative viability ([1]; first compound 0.253 µM): 1.03
- relative viability ([1]; first compound 0.8 µM): 1.01
- relative viability ([1]; first compound 2.53 µM): 1.05
- relative viability ([1]; first compound 8 µM): 0.721
- relative viability ([2]; first compound 0.08 µM): 1.07
- relative viability ([2]; first compound 0.253 µM): 1.1
- relative viability ([2]; first compound 2.53 µM): 0.877
- relative viability ([3]; first compound 0.08 µM): 0.665
- relative viability ([3]; first compound 0.253 µM): 0.78
- relative viability ([3]; first compound 0.8 µM): 0.736
- relative viability ([3]; first compound 2.53 µM): 0.81
- relative viability ([3]; first compound 8 µM): 0.677

Cell Line: NCI-H838
- relative viability (Ricolinostat + Olaparib; first compound 0.08 µM): 0.802
- relative viability (Ricolinostat + Olaparib; first compound 0.253 µM): 0.788
- relative viability (Ricolinostat + Olaparib; first compound 0.8 µM): 0.787
- relative viability (Ricolinostat + Olaparib; first compound 2.53 µM): 0.404
- relative viability ([1]; first compound 0.08 µM): 0.639
- relative viability ([1]; first compound 0.253 µM): 1.08
- relative viability ([1]; first compound 0.8 µM): 0.892
- relative viability ([1]; first compound 2.53 µM): 0.794
- relative viability ([1]; first compound 8 µM): 0.732
- relative viability ([2]; first compound 0.08 µM): 0.97
- relative viability ([2]; first compound 0.253 µM): 1.13
- relative viability ([2]; first compound 0.8 µM): 1.19
- relative viability ([2]; first compound 2.53 µM): 0.967
- relative viability ([3]; first compound 0.08 µM): 0.749
- relative viability ([3]; first compound 0.253 µM): 0.691
- relative viability ([3]; first compound 0.8 µM): 0.775
- relative viability ([3]; first compound 2.53 µM): 0.704
- relative viability ([3]; first compound 8 µM): 0.744

Cell Line: NCI-H2085
- relative viability (Ricolinostat + Olaparib; first compound 0.253 µM): 0.734
- relative viability (Ricolinostat + Olaparib; first compound 0.8 µM): 0.764
- relative viability (Ricolinostat + Olaparib; first compound 2.53 µM): 0.791
- relative viability ([1]; first compound 0.08 µM): 0.704
- relative viability ([1]; first compound 0.253 µM): 0.983
- relative viability ([1]; first compound 0.8 µM): 0.859
- relative viability ([1]; first compound 2.53 µM): 0.952
- relative viability ([1]; first compound 8 µM): 0.867
- relative viability ([2]; first compound 0.253 µM): 1.14
- relative viability ([2]; first compound 0.8 µM): 1
- relative viability ([2]; first compound 2.53 µM): 0.947
- relative viability ([3]; first compound 0.08 µM): 0.726
- relative viability ([3]; first compound 0.253 µM): 0.893
- relative viability ([3]; first compound 0.8 µM): 0.764
- relative viability ([3]; first compound 2.53 µM): 0.784
- relative viability ([3]; first compound 8 µM): 0.714

From the supplement of paper PMC10307832
